Test results from ChEMBL document CHEMBL1151757, “Synthesis, radiosynthesis, and biological evaluation of fluorine-18-labeled 2beta-carbo(fluoroalkoxy)-3beta-(3'-((Z)-2-haloethenyl)phenyl)nortropanes: candidate radioligands for in vivo imaging of the serotonin transporter with positron emission tomography” (J Med Chem, 2008).

Legend:
[1] = Ratio of drug uptake in pons to cerebellum in anesthetized cynomolgus monkey after 195 mins postinjection; type: ADME, organism-based, Macaca fascicularis; details: in vivo, 3.25 h
[2] = Ratio of drug uptake in medulla to cerebellum in anesthetized cynomolgus monkey after 12.5 mins postinjection; type: ADME, organism-based, Macaca fascicularis; details: in vivo
[3] = Ratio of drug uptake in medulla to cerebellum in anesthetized cynomolgus monkey after 65 mins postinjection; type: ADME, organism-based, Macaca fascicularis; details: in vivo
[4] = Ratio of drug uptake in medulla to cerebellum in anesthetized cynomolgus monkey after 95 mins postinjection; type: ADME, organism-based, Macaca fascicularis; details: in vivo
[5] = Ratio of drug uptake in medulla to cerebellum in anesthetized cynomolgus monkey after 135 mins postinjection; type: ADME, organism-based, Macaca fascicularis; details: in vivo, 2.25 h
[6] = Ratio of drug uptake in medulla to cerebellum in anesthetized cynomolgus monkey after 165 mins postinjection; type: ADME, organism-based, Macaca fascicularis; details: in vivo, 2.75 h
[7] = Drug uptake in anesthetized cynomolgus monkey brain occipital lobe after 27.5 mins postinjection; type: ADME, organism-based, Macaca fascicularis; details: in vivo
[8] = Drug uptake in anesthetized cynomolgus monkey brain occipital lobe after 45 mins postinjection; type: ADME, organism-based, Macaca fascicularis; details: in vivo, 0.75 h
[9] = Drug uptake in anesthetized cynomolgus monkey brain occipital lobe after 65 mins postinjection; type: ADME, organism-based, Macaca fascicularis; details: in vivo
[10] = Drug uptake in anesthetized cynomolgus monkey brain occipital lobe after 125 mins postinjection; type: ADME, organism-based, Macaca fascicularis; details: in vivo
[11] = Drug uptake in anesthetized cynomolgus monkey brain occipital lobe after 155 mins postinjection; type: ADME, organism-based, Macaca fascicularis; details: in vivo
[12] = Drug uptake in anesthetized cynomolgus monkey brain occipital lobe after 175 mins postinjection; type: ADME, organism-based, Macaca fascicularis; details: in vivo
[13] = Drug uptake in anesthetized cynomolgus monkey brain occipital lobe after 225 mins postinjection; type: ADME, organism-based, Macaca fascicularis; details: in vivo, 3.75 h
[14] = Drug uptake in anesthetized cynomolgus monkey brain frontal lobe after 4.5 mins postinjection; type: ADME, organism-based, Macaca fascicularis; details: in vivo, 0.075 h
[15] = Drug uptake in anesthetized cynomolgus monkey brain frontal lobe after 225 mins postinjection; type: ADME, organism-based, Macaca fascicularis; details: in vivo, 3.75 h
[16] = Ratio of drug uptake in midbrain to cerebellum in anesthetized cynomolgus monkey after 225 mins postinjection; type: ADME, organism-based, Macaca fascicularis; details: in vivo, 3.75 h
[17] = Ratio of drug uptake in occipital lobe to cerebellum in anesthetized cynomolgus monkey after 175 mins postinjection; type: ADME, organism-based, Macaca fascicularis; details: in vivo
[18] = system: Putamen; experiment: Drug uptake in anesthetized cynomolgus monkey brain putamen after 235 mins postinjection; type: ADME, organism-based, Macaca fascicularis; details: in vivo
[19] = system: Thalamus; experiment: Drug uptake in anesthetized cynomolgus monkey brain thalamus after 1.5 mins postinjection; type: ADME, organism-based, Macaca fascicularis; details: in vivo, 0.025 h
[20] = Ratio of drug uptake in frontal lobe to cerebellum in anesthetized cynomolgus monkey after 35 mins postinjection; type: ADME, organism-based, Macaca fascicularis; details: in vivo
[21] = Ratio of drug uptake in frontal lobe to cerebellum in anesthetized cynomolgus monkey after 145 mins postinjection; type: ADME, organism-based, Macaca fascicularis; details: in vivo
[22] = system: Midbrain; experiment: Drug uptake in anesthetized cynomolgus monkey brain midbrain after 215 mins postinjection; type: ADME, organism-based, Macaca fascicularis; details: in vivo
[23] = system: Pons; experiment: Drug uptake in anesthetized cynomolgus monkey brain pons after 1.5 mins postinjection; type: ADME, organism-based, Macaca fascicularis; details: in vivo, 0.025 h
[24] = system: Pons; experiment: Drug uptake in anesthetized cynomolgus monkey brain pons after 18.5 mins postinjection; type: ADME, organism-based, Macaca fascicularis; details: in vivo
[25] = system: Pons; experiment: Drug uptake in anesthetized cynomolgus monkey brain pons after 45 mins postinjection; type: ADME, organism-based, Macaca fascicularis; details: in vivo, 0.75 h
[26] = system: Pons; experiment: Drug uptake in anesthetized cynomolgus monkey brain pons after 185 mins postinjection; type: ADME, organism-based, Macaca fascicularis; details: in vivo
[27] = Ratio of drug uptake in frontal lobe to cerebellum in anesthetized cynomolgus monkey after 235 mins postinjection; type: ADME, organism-based, Macaca fascicularis; details: in vivo
[28] = system: Caudate; experiment: Drug uptake in anesthetized cynomolgus monkey brain caudate after 195 mins postinjection; type: ADME, organism-based, Macaca fascicularis, Caudate nucleus; details: in vivo, 3.25 h
[29] = Ratio of drug uptake in caudate to cerebellum in anesthetized cynomolgus monkey after 12.5 mins postinjection; type: ADME, organism-based, Macaca fascicularis; details: in vivo
[30] = Ratio of drug uptake in caudate to cerebellum in anesthetized cynomolgus monkey after 18.5 mins postinjection; type: ADME, organism-based, Macaca fascicularis; details: in vivo
[31] = Ratio of drug uptake in caudate to cerebellum in anesthetized cynomolgus monkey after 155 mins postinjection; type: ADME, organism-based, Macaca fascicularis; details: in vivo
[32] = system: Pons; experiment: Drug uptake in anesthetized cynomolgus monkey brain pons after 115 mins postinjection; type: ADME, organism-based, Macaca fascicularis; details: in vivo
[33] = system: Pons; experiment: Drug uptake in anesthetized cynomolgus monkey brain pons after 145 mins postinjection; type: ADME, organism-based, Macaca fascicularis; details: in vivo
[34] = system: Medulla; experiment: Drug uptake in anesthetized cynomolgus monkey brain medulla after 3.5 mins postinjection; type: ADME, organism-based, Macaca fascicularis; details: in vivo
[35] = system: Medulla; experiment: Drug uptake in anesthetized cynomolgus monkey brain medulla after 9.5 mins postinjection; type: ADME, organism-based, Macaca fascicularis; details: in vivo
[36] = system: Medulla; experiment: Drug uptake in anesthetized cynomolgus monkey brain medulla after 95 mins postinjection; type: ADME, organism-based, Macaca fascicularis; details: in vivo
[37] = system: Medulla; experiment: Drug uptake in anesthetized cynomolgus monkey brain medulla after 125 mins postinjection; type: ADME, organism-based, Macaca fascicularis; details: in vivo
[38] = Ratio of drug uptake in putamen to cerebellum in anesthetized cynomolgus monkey after 165 mins postinjection; type: ADME, organism-based, Macaca fascicularis; details: in vivo, 2.75 h
[39] = Drug uptake in anesthetized cynomolgus monkey brain cerebellum after 4.5 mins postinjection; type: ADME, organism-based, Macaca fascicularis; details: in vivo, 0.075 h
[40] = Drug uptake in anesthetized cynomolgus monkey brain cerebellum after 12.5 mins postinjection; type: ADME, organism-based, Macaca fascicularis; details: in vivo
[41] = Drug uptake in anesthetized cynomolgus monkey brain cerebellum after 95 mins postinjection; type: ADME, organism-based, Macaca fascicularis; details: in vivo
[42] = Drug uptake in anesthetized cynomolgus monkey brain cerebellum after 155 mins postinjection; type: ADME, organism-based, Macaca fascicularis; details: in vivo
[43] = Drug uptake in anesthetized cynomolgus monkey brain cerebellum after 215 mins postinjection; type: ADME, organism-based, Macaca fascicularis; details: in vivo
[44] = Drug uptake in anesthetized cynomolgus monkey brain occipital lobe after 0.5 mins postinjection; type: ADME, organism-based, Macaca fascicularis; details: in vivo
[45] = Ratio of drug uptake in thalamus to cerebellum in anesthetized cynomolgus monkey after 9.5 mins postinjection; type: ADME, organism-based, Macaca fascicularis; details: in vivo
[46] = Ratio of drug uptake in thalamus to cerebellum in anesthetized cynomolgus monkey after 27.5 mins postinjection; type: ADME, organism-based, Macaca fascicularis; details: in vivo
[47] = system: Caudate; experiment: Drug uptake in anesthetized cynomolgus monkey brain caudate after 2.5 mins postinjection; type: ADME, organism-based, Macaca fascicularis, Caudate nucleus; details: in vivo
[48] = system: Caudate; experiment: Drug uptake in anesthetized cynomolgus monkey brain caudate after 9.5 mins postinjection; type: ADME, organism-based, Macaca fascicularis, Caudate nucleus; details: in vivo
[49] = system: Caudate; experiment: Drug uptake in anesthetized cynomolgus monkey brain caudate after 55 mins postinjection; type: ADME, organism-based, Macaca fascicularis, Caudate nucleus; details: in vivo
[50] = system: Putamen; experiment: Drug uptake in anesthetized cynomolgus monkey brain putamen after 0.5 mins postinjection; type: ADME, organism-based, Macaca fascicularis; details: in vivo
[51] = system: Putamen; experiment: Drug uptake in anesthetized cynomolgus monkey brain putamen after 3.5 mins postinjection; type: ADME, organism-based, Macaca fascicularis; details: in vivo
[52] = Ratio of drug uptake in occipital lobe to cerebellum in anesthetized cynomolgus monkey after 12.5 mins postinjection; type: ADME, organism-based, Macaca fascicularis; details: in vivo
[53] = system: Thalamus; experiment: Drug uptake in anesthetized cynomolgus monkey brain thalamus after 3.5 mins postinjection; type: ADME, organism-based, Macaca fascicularis; set-up: unit not given here; details: in vivo
[54] = system: Thalamus; experiment: Drug uptake in anesthetized cynomolgus monkey brain thalamus after 6.5 mins postinjection; type: ADME, organism-based, Macaca fascicularis; set-up: unit not given here; details: in vivo
[55] = system: Thalamus; experiment: Drug uptake in anesthetized cynomolgus monkey brain thalamus after 45 mins postinjection; type: ADME, organism-based, Macaca fascicularis; set-up: unit not given here; details: in vivo, 0.75 h
[56] = system: Putamen; experiment: Drug uptake in anesthetized cynomolgus monkey brain putamen after 15.5 mins postinjection; type: ADME, organism-based, Macaca fascicularis; set-up: unit not given here; details: in vivo
[57] = system: Putamen; experiment: Drug uptake in anesthetized cynomolgus monkey brain putamen after 22.5 mins postinjection; type: ADME, organism-based, Macaca fascicularis; set-up: unit not given here; details: in vivo, 0.375 h
[58] = system: Putamen; experiment: Drug uptake in anesthetized cynomolgus monkey brain putamen after 55 mins postinjection; type: ADME, organism-based, Macaca fascicularis; set-up: unit not given here; details: in vivo
[59] = system: Putamen; experiment: Drug uptake in anesthetized cynomolgus monkey brain putamen after 85 mins postinjection; type: ADME, organism-based, Macaca fascicularis; set-up: unit not given here; details: in vivo
[60] = system: Thalamus; experiment: Drug uptake in anesthetized cynomolgus monkey brain thalamus after 55 mins postinjection; type: ADME, organism-based, Macaca fascicularis; set-up: unit not given here; details: in vivo
[61] = system: Thalamus; experiment: Drug uptake in anesthetized cynomolgus monkey brain thalamus after 65 mins postinjection; type: ADME, organism-based, Macaca fascicularis; set-up: unit not given here; details: in vivo
[62] = system: Thalamus; experiment: Drug uptake in anesthetized cynomolgus monkey brain thalamus after 115 mins postinjection; type: ADME, organism-based, Macaca fascicularis; set-up: unit not given here; details: in vivo
[63] = system: Midbrain; experiment: Drug uptake in anesthetized cynomolgus monkey brain midbrain after 4.5 mins postinjection; type: ADME, organism-based, Macaca fascicularis; set-up: unit not given here; details: in vivo, 0.075 h
[64] = system: Midbrain; experiment: Drug uptake in anesthetized cynomolgus monkey brain midbrain after 55 mins postinjection; type: ADME, organism-based, Macaca fascicularis; set-up: unit not given here; details: in vivo
[65] = system: Midbrain; experiment: Drug uptake in anesthetized cynomolgus monkey brain midbrain after 105 mins postinjection; type: ADME, organism-based, Macaca fascicularis; set-up: unit not given here; details: in vivo, 1.75 h
[66] = Ratio of drug uptake in midbrain to cerebellum in anesthetized cynomolgus monkey after 2.5 mins postinjection; type: ADME, organism-based, Macaca fascicularis; details: in vivo
[67] = Ratio of drug uptake in midbrain to cerebellum in anesthetized cynomolgus monkey after 95 mins postinjection; type: ADME, organism-based, Macaca fascicularis; details: in vivo

O=C(OCCC[18F])C1C2CCC(CC1c1cccc(/C=C\I)c1)N2 (configuration not stated)
Ratio [1]: 1.5 | Ratio [2]: 1 | Ratio [3]: 1.2 | Ratio [4]: 1.4 | Ratio [5]: 1.7 | Ratio [6]: 1.9 | Drug uptake [7]: 4 | Drug uptake [8]: 4.09 | Drug uptake [9]: 3.86 | Drug uptake [10]: 2.96 | Drug uptake [11]: 2.63 | Drug uptake [12]: 2.55 | Drug uptake [13]: 2.09 | Drug uptake [14]: 1.31 | Drug uptake [15]: 1.82 | Ratio [16]: 2 | Ratio [17]: 1.1 | Drug uptake [18]: 3.02 | Drug uptake [19]: 0.24 | Ratio [20]: 0.6 | Ratio [21]: 1 | Drug uptake [22]: 3.69 | Drug uptake [23]: 0.21 | Drug uptake [24]: 4.2 | Drug uptake [25]: 4.5 | Drug uptake [26]: 3.31 | Ratio [27]: 0.9 | Drug uptake [28]: 2.74 | Ratio [29]: 0.7 | Ratio [30]: 0.7 | Ratio [31]: 1.4 | Drug uptake [32]: 3.98 | Drug uptake [33]: 3.74 | Drug uptake [34]: 2.2 | Drug uptake [35]: 3.97 | Drug uptake [36]: 4.93 | Drug uptake [37]: 4.54 | Ratio [38]: 1.6 | Drug uptake [39]: 2.5 | Drug uptake [40]: 4.52 | Drug uptake [41]: 3.46 | Drug uptake [42]: 2.32 | Drug uptake [43]: 2.06 | Drug uptake [44]: 0.01 | Ratio [45]: 0.8 | Ratio [46]: 1 | Drug uptake [47]: 0.64 | Drug uptake [48]: 2.7 | Drug uptake [49]: 4.09 | Drug uptake [50]: 0.01 | Drug uptake [51]: 1.59 | Ratio [52]: 0.8 | Drug uptake [53]: 1.44 | Drug uptake [54]: 3.06 | Drug uptake [55]: 4.84 | Drug uptake [56]: 4.27 | Drug uptake [57]: 4.71 | Drug uptake [58]: 5.03 | Drug uptake [59]: 4.82 | Drug uptake [60]: 4.89 | Drug uptake [61]: 4.79 | Drug uptake [62]: 4.24 | Drug uptake [63]: 2.42 | Drug uptake [64]: 4.98 | Drug uptake [65]: 4.82 | Ratio [66]: 0.9 | Ratio [67]: 1.4
